# Experimental data from article PMC5908134, “Saccharomyces cerevisiae as a platform for assessing sphingolipid lipid kinase inhibitors” (PLoS ONE, 2018).
# Legend:
# [1] = target: recombinant human SphK1; set-up: method as in PMID 21216217; conditions: determined previously; cited from earlier work
# [2] = target: T1, human SphK1 (Homo sapiens, UniProt Q9NYA1); assay: yeast growth rescue assay, strain CBY169 expressing human SphK1; assay type: cell-based; conditions: for rescue of growth in galactose media: strain CBY169 expressing human SphK1
# T1 construct: constructed by sub-cloning DNA encoding the indicated translational open reading frames into the pYES2-FLAG-URA expression vector; expressed in transfected cells; host or cells: Saccharomyces cerevisiae CBY169 or KYA1, plasmid pGAL-HsSPHK1
# Source text: (§1) The plasmids pGAL-HsSPHK1, pGAL-HsSPHK2, pGAL-MmSphk1, pGAL-MmSphk1L277M, pGAL-MmSphk2, pGAL-HsCERK and pGAL-SK2_MOD used in this study were constructed by sub-cloning DNA encoding the indicated translational open reading frames into the pYES2-FLAG-URA expression vector (provided by Dr. Cungui Mao). […] Excepting human and mouse SphK2, the DNA sequences are synthetic (from GeneWiz LLC (South Plainfield, NJ)) and were optimized for expression in S. cerevisiae.
# (§2) Yeast harboring plasmids were selected and maintained on synthetic complete media lacking uracil (SC-URA) with 2% glucose as the fermentable carbon source. After overnight growth at 30°C in this media, the cultures were diluted 1:100 into SC-URA media supplemented with 2% galactose and various concentrations of test inhibitor. After a further 24–48 hours incubation at 30°C, the extent of growth was assessed by measuring absorbance at 600 nm. […] Tubes were incubated in a rotating drum while plates were agitated using a plate mixer. A600 for 96-well plate cultures was determined using a Molecular Devices SpectraMax M5 plate reader. Test compounds were dissolved in DMSO at 40–50 mM and diluted into water containing 0.1% fatty acid free bovine serum albumin. In all cases, the DMSO concentration in the assay was less than 2% (v/v).
# [3] = target: T2, human CerK (Homo sapiens, UniProt Q8TCT0); assay: yeast growth rescue assay, strain JS1256 (WT) expressing human CerK; assay type: cell-based; conditions: galactose media
# T2 construct: constructed by sub-cloning DNA encoding the indicated translational open reading frames into the pYES2-FLAG-URA expression vector; expressed in transfected cells; host or cells: Saccharomyces cerevisiae JS1256, plasmid pGAL-HsCERK
# T2 sequence (Q8TCT0 1-537): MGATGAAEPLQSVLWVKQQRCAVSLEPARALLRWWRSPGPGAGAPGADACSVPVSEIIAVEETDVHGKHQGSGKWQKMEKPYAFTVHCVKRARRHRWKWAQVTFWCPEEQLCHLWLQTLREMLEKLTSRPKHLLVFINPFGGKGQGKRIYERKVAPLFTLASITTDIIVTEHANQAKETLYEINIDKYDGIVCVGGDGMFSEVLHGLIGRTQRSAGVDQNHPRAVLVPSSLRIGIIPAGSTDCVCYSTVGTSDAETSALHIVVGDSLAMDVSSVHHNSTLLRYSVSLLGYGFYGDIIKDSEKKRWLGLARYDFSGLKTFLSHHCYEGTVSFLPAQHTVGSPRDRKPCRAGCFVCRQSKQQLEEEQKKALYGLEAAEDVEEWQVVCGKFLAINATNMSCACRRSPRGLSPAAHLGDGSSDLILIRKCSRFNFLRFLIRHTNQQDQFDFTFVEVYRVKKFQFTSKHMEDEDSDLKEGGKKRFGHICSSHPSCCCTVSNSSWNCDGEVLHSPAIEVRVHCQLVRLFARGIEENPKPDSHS
# Source text: (§3) The yeast strains used in this study include JS1256 (MATa his3Δ1 leu2Δ0 met15Δ0 ura3Δ0) and CBY169 (MATα leu2-3,112 ura3-52 his4 trp1 rme1 dpl1Δ::TRP1 lcb3Δ::LEU2 lcb4Δ::kanMX lcb5Δ::kanMX) (the latter provided by Kyle Cunningham). The CBY169 strain was modified further by replacement of the PDR5 gene with a selectable marker (confers resistance to clonat) to generate strain KYA1 (MATα leu2-3,112 ura3-52 his4 trp1 rme1 dpl1Δ::TRP1 lcb3Δ::LEU2 lcb4Δ::kanMX lcb5Δ::kanMX pdr5Δ::natMX).
# (§4) The plasmids pGAL-HsSPHK1, pGAL-HsSPHK2, pGAL-MmSphk1, pGAL-MmSphk1L277M, pGAL-MmSphk2, pGAL-HsCERK and pGAL-SK2_MOD used in this study were constructed by sub-cloning DNA encoding the indicated translational open reading frames into the pYES2-FLAG-URA expression vector (provided by Dr. Cungui Mao). The encoded proteins all have an amino terminal FLAG epitope tag ([…]) and their expression is under the control of the GAL1,10 promoter. Excepting human and mouse SphK2, the DNA sequences are synthetic (from GeneWiz LLC (South Plainfield, NJ)) and were optimized for expression in S. cerevisiae.
# [4] = target: T1, human SphK1; assay: yeast growth rescue assay, strain KYA1 (PDR5 deleted) expressing human SphK1; assay type: cell-based
# Source text: as §1, §2
# [5] = target: T3, human SphK2 (Homo sapiens, UniProt Q9NRA0); assay: yeast growth rescue assay, strain CBY169 expressing human SphK2; assay type: cell-based
# T3 construct: full length (wild type hSK2); expressed in transfected cells; host or cells: Saccharomyces cerevisiae CBY169 or KYA1, plasmid pGAL-HsSPHK2
# T3 sequence (Q9NRA0 1-618 isoform Q9NRA0-2): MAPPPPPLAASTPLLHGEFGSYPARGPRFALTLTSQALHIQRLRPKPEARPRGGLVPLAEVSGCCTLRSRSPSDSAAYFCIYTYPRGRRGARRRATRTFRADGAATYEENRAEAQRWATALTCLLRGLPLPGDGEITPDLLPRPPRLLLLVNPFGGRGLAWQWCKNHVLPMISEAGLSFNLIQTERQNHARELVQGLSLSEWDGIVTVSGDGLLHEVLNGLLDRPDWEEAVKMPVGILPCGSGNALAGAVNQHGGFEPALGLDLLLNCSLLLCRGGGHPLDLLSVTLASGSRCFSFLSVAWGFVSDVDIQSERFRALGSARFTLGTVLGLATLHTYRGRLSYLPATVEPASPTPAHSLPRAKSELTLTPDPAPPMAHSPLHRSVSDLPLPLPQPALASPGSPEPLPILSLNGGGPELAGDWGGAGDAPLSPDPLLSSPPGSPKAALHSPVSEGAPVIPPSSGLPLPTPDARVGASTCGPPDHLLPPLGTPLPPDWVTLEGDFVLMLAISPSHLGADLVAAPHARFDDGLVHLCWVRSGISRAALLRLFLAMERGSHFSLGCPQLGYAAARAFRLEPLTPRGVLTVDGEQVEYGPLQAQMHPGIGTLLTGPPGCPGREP
# Source text: as §1
# [6] = test system: yeast strain CBY169; assay: toxicity for yeast (growth of strains without lipid kinase expression); conditions: yeast strain CBY169
# Method: as §2
# The salient limitations of the yeast assay are those of any cell-based assay. Namely, the assay reports EC50 values rather than Km, Vmax or kcat values of inhibitors, test compounds must not be markedly cytotoxic at the concentrations tested and compounds must accumulate to some extent in the yeast. Cytotoxicity is readily discerned by testing compounds for an effect on growth of strains without lipid kinase expression.
# [7] = target: sphingosine kinase; set-up: method as in PMID 21216217; conditions: cited from earlier work
# [8] = target: T3, human SphK2; assay: yeast growth rescue assay, strain KYA1 (PDR5 deleted) expressing human SphK2; assay type: cell-based; conditions: strain KYA1 expressing human SphK2
# Source text: as §3, §4
# [9] = test system: human and rat SphK1 and SphK2; set-up: method as in PMID 26243740; conditions: cited from earlier work
# [10] = target: T4, mouse SphK1 L277M (Mus musculus, UniProt Q8CI15, L271M); assay: yeast growth rescue assay, mouse SphK1 L277M mutant versus wild type mouse SphK1; assay type: cell-based
# T4 construct: constructed by sub-cloning DNA encoding the indicated translational open reading frames into the pYES2-FLAG-URA expression vector; expressed in transfected cells; host or cells: Saccharomyces cerevisiae (CBY169, printed 'CYA169', and KYA1), plasmid pGAL-MmSphk1L277M
# Source text: as §1
# T1 sequence (Q9NYA1 whole entry): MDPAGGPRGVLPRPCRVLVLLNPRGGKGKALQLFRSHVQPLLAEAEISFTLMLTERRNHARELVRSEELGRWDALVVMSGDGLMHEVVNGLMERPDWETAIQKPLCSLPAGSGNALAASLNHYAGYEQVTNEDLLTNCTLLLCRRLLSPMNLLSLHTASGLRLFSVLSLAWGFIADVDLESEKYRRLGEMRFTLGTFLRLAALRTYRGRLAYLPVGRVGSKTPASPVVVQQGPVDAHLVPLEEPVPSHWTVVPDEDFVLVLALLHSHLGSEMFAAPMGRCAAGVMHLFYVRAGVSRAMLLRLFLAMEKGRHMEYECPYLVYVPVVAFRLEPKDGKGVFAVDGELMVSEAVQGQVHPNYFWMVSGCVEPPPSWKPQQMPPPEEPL
# T4 sequence (Q8CI15 1-388 isoform Q8CI15-2 L277M): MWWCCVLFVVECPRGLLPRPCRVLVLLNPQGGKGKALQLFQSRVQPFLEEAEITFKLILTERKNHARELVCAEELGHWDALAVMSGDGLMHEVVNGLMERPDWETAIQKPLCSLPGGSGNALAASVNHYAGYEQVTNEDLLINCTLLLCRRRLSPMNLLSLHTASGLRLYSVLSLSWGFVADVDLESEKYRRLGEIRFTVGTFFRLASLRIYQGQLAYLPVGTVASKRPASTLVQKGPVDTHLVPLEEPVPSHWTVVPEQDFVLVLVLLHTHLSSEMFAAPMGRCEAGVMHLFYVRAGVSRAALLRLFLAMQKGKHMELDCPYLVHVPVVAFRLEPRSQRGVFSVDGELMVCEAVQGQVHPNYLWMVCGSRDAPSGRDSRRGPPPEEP
smiles,measurement,setting,value
CCCCCCCc1ccc(NC(=O)[C@@H](N)CCO)cc1 [9ab],Ki,[1],1.4 to 1.7 µM
same,EC50,[2],0.9 µM
O=C(Nc1nc2ccc(NC(=O)C34CC5CC(CC(C5)C3)C4)cc2s1)c1ccccc1 [NVP-231],rescue of growth,[3],growth was restored in a dose dependent fashion
Oc1ccc(Nc2nc(-c3ccc(Cl)cc3)cs2)cc1 [SKI-II],rescue of growth,[4],failed to rescue growth
same,rescue of growth,[5],failed to rescue growth
same,concentrations at which toxic for yeast,[6],above 3 μM
same,Ki,[7],12 to 30 µM
same,rescue of growth,[8],failed to rescue growth
same,rescue of growth in galactose media,[2],failed to rescue growth
CCCCCOc1ccc2cc(-c3noc([C@@H]4[C@@H](O)CCN4C(=N)N)n3)ccc2c1 [SLC5111312],potency at SphK1 versus SphK2,[9],equipotent
same,rescue of growth,[5],rescued growth
same,concentrations at which toxic for yeast,[6],2000 to 3000 nM
same,EC50 values for mutant mouse enzyme versus human enzyme,"[10]; mouse SphK1 L277M versus human SphK1, yeast growth rescue",similar
same,potency at mutant (L277M) versus wild type mouse SphK1,[10]; yeast growth rescue,distinctly more potent
same,rescue of growth in galactose media,[2],restored full growth
